The values below come from US20160374979A1, “Method of Treatment of Alopecia with Monoterpenoids” (CELLMID LIMITED, priority 2013, published 2016).

The subject of series [1] is alopecia patients. Particulars: cited from earlier work.
The test system of series [2] is murine vibrissae follicles. The series can be described thus: Hair shaft elongation of murine vibrissae follicles cultured ex vivo. Also on record: species or system C3H mice. The note with it: exogenous FGF-5 300 ng/mL, 8 days, versus control (FIGS. 20 and 21). An excerpt: Five week old male C3H mice (supplied by Japan SLC, lnc., Hamamatsu, Japan) were used for isolation of vibrissae follicles. The mice were sacrificed and the vibrissae follicles were carefully dissected from the mystacial pad. Briefly, the mystacial pad was cut into two sides (left and right). The skin cut, picked at the edge by tweezers, was washed in (i) 70% Ethanol for 30 seconds, (ii) PBS for 10 seconds, (iii) fresh PBS for 10 seconds, and (iv) another fresh PBS for 10 seconds. This washing process was repeated twice. After washing, the skin cut was placed inverted to expose the vibrissae follicles in Dulbecco's Modified Eagle's Medium (DMEM; Wako Pure Chemical, Osaka, Japan) at 37° C. Under a dissecting microscope, the surrounding tissue was removed from the follicles using tweezers, carefully so as not to destroy the structure of the follicles. The isolated follicles were then placed immediately into Williams' E medium (Life Technologies, Carlsbad, USA).
From the isolated mouse vibrissae follicles, only early anagen follicles were selected and randomized into groups with 30 follicles per group. […]
Follicles in each of the treatment and control groups were incubated at 37° C. at 5% CO2 for 8 days, while exchanging the respective culture mediums every 2 days. From Day 1, elongation of hair shafts was observed and the elongation length was measured for each hair shaft every 24 hours from Day 1 to Day 8 using a micrometer under microscope. […]
Follicles in each of the treatment and control groups were incubated at 37° C. at 5% CO2 for 5 days, while exchanging the culture medium every 3 days. From Day 1, elongation of hair shafts was observed and the elongation length was measured for each hair shaft every 24 hours from Day 1 to Day 5. using a micrometer under microscope. […]

Bounds are passed on as bounds.

`Nc1cc(N2CCCCC2)nc(N)[n+]1[O-]` [Minoxidil]: in series [1] (2% solution), the “patients with irritation of the scalp (dryness, scaling, itching, redness)” value is reported as “approximately 7%”.
Regarding `CC(C)(C)NC(=O)[C@H]1CC[C@H]2[C@@H]3CC[C@H]4NC(=O)C=C[C@]4(C)[C@H]3CC[C@]12C` [finasteride, Finasteride], the “balding male recipients with poor or no response” value in series [1] (finasteride treatment) is no less than 35%.

B1: FGF-5: FGF-5 protein (R&D Systems) added to follicle culture medium at 300 ng/mL (protein, UniProt P12034 21-268, looked up)
Fibroblast growth factor 5: HGEKRLAPKGQPGPAATDRNPRGSSSRQSSSSAMSSSSASSSPAASLGSQGSGLEQSSFQWSPSGRRTGSLYCRVGIGFHLQIYPDGKVNGSHEANMLSVLEIFAVSQGIVGIRGVFSNKFLAMSKKGKLHASAKFTDDCKFRERFQENSYNTYASAIHRTEKTGREWYVALNKRGKAKRGCSPRVKPQHISTHFLPRFKQSEQPELSFTVTVPEKKKPPSPIKPKIPLSAPRKNTNSVKYRLKFRFG
On to B1, for which the “rate of hair shaft elongation” value in series [2] is on record as “slow the rate of hair shaft elongation over time”.
